Results as given in US4885275A, “Vancomycin-HCL solutions and the lyophilization thereof” (Eli Lilly and Company, priority 1987, dated 1989).
Structures can show the parent of a compound that is named as a salt.

What was measured:
[1] = Gel inhibition in concentrated aqueous vancomycin.HCl solutions; format: physicochemical; design: key: G = gel formation; NG = No gel formation; settings: test compound 10% v/v in aqueous vancomycin.HCl 20% w/v, pH about 3.2, Waring blender high speed 3 minutes
Description: The experiments were carried out to determine the effect on gel formation in aqueous solutions of vancomycin HCl at a concentration of 20% w/v. The solutions were prepared as follows. An aqueous vehicle containing the test compound in an amount sufficient to provide 10% v/v in the final solution was prepared with water. Vancomycin-free base was added to the aqueous vehicle in an amount sufficient to provide a 20% w/v concentration in the final solution. The slurry of base in the aqueous vehicle was treated with 20% hydrochloric acid to form vancomycin.HCl salt and to adjust the pH to about 3.2. The solution which formed was kept covered to avoid loss of the test compound and water was added to the final volume. The solution was blended in a Waring blender at high speed for 3 minutes and then transferred to clear bottles to observe for gel formation.

[2] = Gel formation of aqueous vancomycin hydrochloride solutions; format: physicochemical; settings: particularly when agitated by stirring, shaking or blending
[3] = room temperature; cited from earlier work
[4] = Vancomycin.HCl solubility in gel inhibitory compounds (UV or HPLC assay)
Description: The solubility of vancomycin.HCl in some of the gel inhibitory compounds was determined as follows. A two-gram quantity of chromatographically purified vancomycin hydrochloride was added to 100 ml of each compound under consideration. Fresh compound was used when possible to minimize the water content. […] The mixtures were stirred at a moderate rate for 4 hours, with sample aliquots removed at timepoints of 10 minutes, 2 hours and 4 hours. The mixtures were then allowed to stand overnight. A final aliquot was taken at the 20- to 24-hour timepoint. The sample aliquots were assayed by UV absorption measurements or HPLC with UV detection.
UV absorption at 280 nm was used to measure the concentration of vancomycin in the sample solutions made with the transparent solvents. Each sample was filtered through medium-pore filter paper and diluted with water to provide an absorption less than 1.0 A. The remaining compounds, acetone and ethyl acetate, required solvent removal before the measurement step. After filtration, sample aliquots were dried under nitrogen and reconstituted with an aqueous buffer for assay by HPLC. The propylene glycol sample were also assayed by HPLC after appropriate dilution without a drying step.

For `CC(C)=O` [Acetone], the “Test Result (gel formation)” value [1] was “NG”.

For `CCC(C)=O` [Methyl ethyl ketone], the “Test Result (gel formation)” value [1] was “NG”.

For `CC(C)O` [Isopropanol], the “Test Result (gel formation)” value [1] was “NG”.

In the case of `CO` [Methanol], the “Test Result (gel formation)” value [1] is reported as “G”.

For `OCC(O)CO` [Glycerin], the “Test Result (gel formation)” value [1] was “G”.

With `CCOC(C)=O` [Ethyl acetate] the “Test Result (gel formation)” value [1] was “G”.

In the case of `CC(O)CO` (centres unmarked) [Propylene glycol], the “Test Result (gel formation)” value [1] is reported as “NG”.

With `CC(=O)OC(C)C` [Isopropyl acetate] the “Test Result (gel formation)” value [1] was “NG”.

For `CN[C@H](CC(C)C)C(=O)N[C@H]1C(=O)N[C@@H](CC(N)=O)C(=O)N[C@H]2C(=O)N[C@H]3C(=O)N[C@H](C(=O)N[C@H](C(=O)O)c4cc(O)cc(O)c4-c4cc3ccc4O)[C@H](O)c3ccc(c(Cl)c3)Oc3cc2cc(c3O[C@@H]2O[C@H](CO)[C@@H](O)[C@H](O)[C@H]2O[C@H]2C[C@](C)(N)[C@H](O)[C@H](C)O2)Oc2ccc(cc2Cl)[C@H]1O` [Vancomycin.HCl, vancomycin hydrochloride], the “concentration in water above which solutions form gels” value [2] is listed as “above 12 % w/v”, the solubility in water [3] is listed as “about 200 mg/ml” and the Solubility ([4]; in acetone, 10 min, HPLC assay) is listed as < 10 µg/mL. The Solubility ([4]; in acetone, 2 hrs, HPLC assay) was < 10 µg/mL, the Solubility ([4]; in acetone, 4 hrs, HPLC assay) was < 10 µg/mL and the Solubility ([4]; in acetone, 20 hrs, HPLC assay) was < 10 µg/mL. For the same compound, the Solubility ([4]; in ethyl acetate, 10 min, HPLC assay) was < 10 µg/mL, the Solubility ([4]; in ethyl acetate, 2 hrs, HPLC assay) was < 10 µg/mL and the Solubility ([4]; in ethyl acetate, 4 hrs, HPLC assay) was < 10 µg/mL. The Solubility ([4]; in ethyl acetate, 20 hrs, HPLC assay) was < 10 µg/mL, the “concentration at which gel forms in ethyl alcohol” value ([4]; in ethyl alcohol (non-aqueous)) was “about 2 mg/ml” and the Solubility ([4]; in isopropanol, 10 min, UV assay) was 40 µg/mL. The Solubility ([4]; in isopropanol, 2 hrs, UV assay) was 40 µg/mL, the Solubility ([4]; in isopropanol, 4 hrs, UV assay) was 100 µg/mL and the Solubility ([4]; in isopropanol, 20 hrs, UV assay) was 70 µg/mL. The Solubility ([4]; in methanol, 10 min, UV assay) was 5300 µg/mL, the Solubility ([4]; in methanol, 2 hrs, UV assay) was 3700 µg/mL and the Solubility ([4]; in methanol, 4 hrs, UV assay) was 3100 µg/mL. For the same compound, the Solubility ([4]; in methanol, 20 hrs, UV assay) was 2400 µg/mL and the Solubility ([4]; in propylene glycol, 10 min, HPLC assay) was 3000 µg/mL.

In the case of `CCO` [Ethanol], the “Test Result (gel formation)” value [1] is reported as “NG”.
